The record followed here is patent US9840532B2, “5′-substituted nucleoside compounds” (Eli Lilly and Company, priority 2015, dated 2017).

For one experiment, the system named is GDM-1 cells. Nature of the experiment: Combination with BCL2 inhibitor ABT-199 in AML cell lines, 4-day cell proliferation assay. Format: cell-based. Particulars: GDM-1, treatment duration 4 Days; single agent or combination; read-out: Absolute IC50 (cell proliferation). The method, then: (§1) On day 1, plate GDM-1 [ATCC®, maintained throughout in GDM-1 assay medium: RPMI-1640 medium/20% heat-inactivated FBS (GIBCO®)] and EOL-1 cells [ATCC®, maintained throughout in EOL-1 assay medium: RPMI-1640 medium/10% heat-inactivated FBS (GIBCO®)] at 4000 and 10000 cells/well (100 μL/well) respectively, in a 96-well assay plate (BD FALCON® 35-3219). Incubate the plates in a 37° C. incubator (5% CO2) for 18-24 hr. On day 2, prepare 2.0% DMSO with assay medium (as indicated above or RPMI-1640/20% heat-inactivated FBS and RPMI-1640/10% FBS for GDM-1 and EOL-1, respectively) and add 100 μL to columns 3-12 in a preparation plate. Prepare test compounds ABT-199 at 10 μM in 2% DMSO and PRMT5 inhibitor Example 1 at 25 μM in 2% DMSO and dispense into wells A2 and B2, respectively, followed by serial dilution (1:3, 10 points) to wells A11 and B11, respectively. For combinational treatment, serially dilute test compound examples at 1:2 in assay medium (as indicated above or RPMI-1640/20% heat-inactivated FBS and RPMI-1640/10% FBS for GDM-1 and EOL-1, respectively) in wells C2-C11 (0.1 μM) to H2-H11, then serially dilute test compound ABT-199 1:3 from C2-H2 (1.0 μM) to C11-H11. […] Incubate plates for 10-15 min at room temperature before reading. Measure luminescence using the PERKIN-ELMER® ENVISION® Multi-Label Reader. […]

In a further experiment the test system is EOL-1 cells. Description: Combination with BCL2 inhibitor ABT-199 in AML cell lines, 7-day cell proliferation assay. Type of experiment: cell-based. Particulars: EOL-1, treatment duration 7 Days; single agent or combination; read-out: Absolute IC50 (cell proliferation). The method, then: as §1
Another experiment concerns Molt 4 cells. Description: Xenograft tumor model, acute lymphoblastic leukemia (Molt 4). Type of experiment: in vivo, mouse. The conditions noted are these: 60 mg/kg BID for 30 days, oral gavage. As for the experimental part: The purpose of this assay is to measure in a mouse model of cancer the reduction in tumor volume in response to test compound administration.
Grow A375 (melanoma) cells in DMEM/High glucose (HYCLONE™ cat. # SH30022) with 10% HI FBS (GIBCO® cat. #10082-147). Grow Will-2 (DLBCL) cells in RPMI 1640 with L-glutamine and 20% heat inactivated FBS. Grow Namalwa (Burkitt's lymphoma) cells (ATCC) in RPMI 1640 media supplemented with L-glutamine, 25 mM HEPES (GIBCO® 22400-089), 1 mM sodium pyruvate and 7.5% FBS. Grow Molt 4 cells in RPMI 1640 with L-glutamine, 25 mM HEPES [GIBCO 22400-089], 1 mM sodium pyruvate, and 10% FBS. Harvest cells and inject subcutaneously onto the rear flank of nude mice (A375: 5×10^6 cells/animal, mixed 1:1 with MATRIGEL®; Will-2; 1×10^7 cells/animal; Namalwa: 2×10^6 cells/animal; Molt 4: : 5×10^6 cells/animal, mixed 1:1 with MATRIGEL®). When tumors are established (approximately 200 mm^3, 7-21 days after implant), randomize animals, and group them into control and test groups. Formulate the test compound in 1% HEC/0.25% TWEEN®-80/0.05% Antifoam. Administer test compound and vehicles by oral gavage. Determine tumor response by tumor volume measurement (caliper) performed twice a week during the course of treatment and report as the percent inhibition of tumor volume versus the vehicle control group.

The target in another experiment is T1, PRMT5/MEP50 complex (Homo sapiens, UniProt O14744).
T1 construct: FLAG; made in house; host or cells: baculovirus/Sf9 insect cells
Description: PRMT5/MEP50 SPA Assay. Type of experiment: biochemical. Particulars: Mean ± SEM. An excerpt:
The purpose of this assay is to measure the ability of a test compound to inhibit the enzyme activity of PRMT5 in vitro by inhibiting the catalytic activity of PRMT5/MEP50 complex, indicated by the transfer of radiolabeled methyl-^3H to a substrate peptide derived from the N-terminal sequence of the human histone H4.
Express the PRMT5/MEP50 enzyme complex using a baculovirus/Sf9 system and purify using anti-FLAG affinity chromatography, (essentially as described in preparations by Stephen Antonysamy, Zahid Bonday, Robert M. Campbell, Brandon Doyle, Zhanna Druzina, Tarun Gheyi, Bomie Han, Louis N. Jungheim, Yuewei Qian, Charles Rauch, Marijane Russell, J. Michael Sauder, Stephen R. Wasserman, Kenneth Weichert, Francis S. Willard, Aiping Zhang, and Spencer Emtage; Crystal structure of the human PRMT5:MEP50 complex, Proceedings of the National Academy of Sciences, 2012, Volume 109, pages 17960-17965.) Dilute purified enzyme to a working stock of 6.67 nM in assay buffer (50 mM TRIZMA® preset pH ˜8.5, 1 mM DTT, 0.005% TWEEN® 80 0.01% HSA).
Add enzyme (15 μL/well) to a 384-well assay plate (CORNING® cat. #3706). Add test compounds from a 10 mM DMSO stock solution to the plate as serial dilutions in assay buffer to achieve a final test concentrations ranging from 50.0 μM to 25 nM. Create a reaction mix containing 1 μM Histone H4 biotinylated peptide substrate, H-[…]-biotin (SEQ ID NO: 1), prepared by FastMoc chemistry with an ABI 431 peptide, and 4 μM ^3H-SAM; 15 Ci/mmol, 0.366 mCi/mL, 37 μM, PERKIN-ELMER® cat. # NET155000MC) in assay buffer. To each plate well, add 5 μL of the peptide/^3H-SAM reaction mix to yield final assay conditions of 5 nM enzyme, 1 ^3H-SAM, 250 nM peptide and 50 μM maximum test compound concentration with 0.5% DMSO, at a final volume of 20 μL. Incubate the assay for 2 hr at room temperature. Stop the reaction with the addition of guanidine HCl (5 M, 20 μL, Sigma cat. # G3272).
Suspend strepavidin YSI SPA scintillation beads (PERKIN-ELMER®, #RPNQ0012) at 1 mg/mL in pH ˜8.5 Tris buffer containing 5 M guanidine HCl. To each well, add 20 μL of this bead suspension, agitate the resulting mixtures, and incubate for 1 hr at room temperature prior to measuring their radioactivity, using a microplate liquid scintillation counter as an indication of the formation of methylated peptide product.
Generate raw data from the radioactivity measurement as counts per min (CPM). Employ an uninhibited control (DMSO) and maximum inhibited control (250 μM dehydrosinefungin, (isolated essentially as described in Berry, D. R. & Abbott, B. J. Incorporation of carbon-14-labeled compounds into sinefungin (A9145), a nucleoside antifungal antibiotic. J. Antibiot. 1978 (31) 185-191 and references cited therein)). […]

For experiment [1], the system named is PRMT5-dependent alternative splicing of MDM4 in A375 melanoma cells. Nature of the experiment: MDM4 Exon5/6 qPCR Assay in A375 Tumor Cells. Type of experiment: cell-based. Particulars: Homo sapiens, A-375, 72 hr, Mean ± SEM. The method, then:
Culture A375 tumor cells (ATCC), a melanoma cancer cell line, to 70%-90% confluence in T150 flasks with the growth medium (DMEM; HYCLONE™ #SH30022 with 10% FBS; GIBCO® 10082-147 or equivalent). Treat the cells with standard trypsin/EDTA treatment for 3 min and aspirate and wash with PBS to release the adherent cells from the culture flask. Seed the cells into a 96 well plate (Costar 3596) at 5000/well in growth medium (90 μL). Incubate the plate overnight at 37° C. and 5% CO2 and treat the cells with test compound at serial dilutions ([…], final DMSO addition of 0.2% yield) for 72 hr. Measure activity relative to maximum (2.0 μM of Example 2 and minimum (0.2% DMSO) controls.
On Day 5 after incubation, remove the medium from the culture plates and wash the cells twice with cold PBS (150 μL/well). Prepare Lysis Working Reagent from the TAQMAN® Gene Expression Cells-to-CT Kit (INVITROGEN™ cat. # AM1729) by dilution of DNAse 1 into Lysis Solution at 1/100. Add Lysis Working Reagent (50 μL/well) to the cell plates, mix well, and incubate at room temperature for 5 min Add kit stop solution (5 μL) to each well, mix the wells, and incubate for 2 min at room temperature. Prepare Reverse Transcriptase Master Mix in the following volume ratios; RT buffer: Nuclease-free water: RT Enzyme at 62.5:31.25:6.25. Add RT mix (48 μL/well) to each well of a 96-well NUNC™ plate (THERMO SCIENTIFIC™ #260860). Add RT mix (20 μL) and each cell lysate sample (5 μL) into a 384 PCR plate (Clear Optical Reaction Plate, cat. #4309849, APPLIED BIOSYSTEMS®) quadrant 1 and add a second addition of RT Mix and cell lysate to quadrant 3. For the RT reaction, seal the plates and then place them in a thermal cycler set at 37° C. for 60 min; 95° C. for 5 min; stop at 4° C. For qPCR, prepare MDM4 exon 5 primers (Life Technologies Hs00967240-ml) and exon 6 primers (Life Technologies Hs00967242-ml) separately in the following volume ratios of RT mix: H2O: exon probe at 10:6:1. Add Exon 5 (17 μL) to odd columns of a 384 PCR plate and add exon 6 (17 μL) to the even columns. Add cDNA (3 μL, from the RT plate) by quadrant stamping to each well of the qPCR plate containing the 17 μL exon primer solution. In this manner, perform qPCR for both exons on cDNAs from a single RT reaction on an individual cell lysate. Seal the plates, spin, and place on a real-time PCR instrument (Life Technologies ViiA7 Real-Time PCR). […]
Retrieve CT data from the real-time PCR reader and perform the following calculations, where “CPD” is the value from compound-treated samples, and “DMSO” is the minimum control sample, using an Excel template: (Exon 6 CT CPD−Exon 6 CT DMSO)−(Exon 5 CT CPD−Exon 5 CT DMSO)=ΔCT 2^(−ΔCT)=Fold Change […]
(In qPCR the cycle at which signal appears reflects the starting amount.)

The term EC50 denotes the concentration needed to bring the measured effect to its halfway point. A low value points to greater potency.

T1 sequence (O14744 whole entry): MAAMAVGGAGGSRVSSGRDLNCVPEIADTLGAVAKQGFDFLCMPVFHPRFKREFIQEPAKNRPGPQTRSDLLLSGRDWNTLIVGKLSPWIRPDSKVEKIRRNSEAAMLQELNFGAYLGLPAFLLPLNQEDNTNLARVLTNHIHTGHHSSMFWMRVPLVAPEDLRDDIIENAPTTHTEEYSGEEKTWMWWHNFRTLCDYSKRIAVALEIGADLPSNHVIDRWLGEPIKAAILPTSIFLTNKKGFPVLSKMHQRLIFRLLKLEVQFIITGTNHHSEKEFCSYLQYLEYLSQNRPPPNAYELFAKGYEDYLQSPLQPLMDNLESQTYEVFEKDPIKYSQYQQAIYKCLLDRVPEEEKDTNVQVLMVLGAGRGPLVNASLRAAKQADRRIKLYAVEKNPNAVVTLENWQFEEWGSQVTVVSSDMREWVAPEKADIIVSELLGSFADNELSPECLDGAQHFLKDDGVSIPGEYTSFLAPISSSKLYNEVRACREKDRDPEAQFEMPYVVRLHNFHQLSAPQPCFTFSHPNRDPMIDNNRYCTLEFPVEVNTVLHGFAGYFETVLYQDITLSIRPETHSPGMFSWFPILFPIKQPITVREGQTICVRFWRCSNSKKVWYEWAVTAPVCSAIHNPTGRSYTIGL
T1 sequence (Q9BQA1 whole entry partner): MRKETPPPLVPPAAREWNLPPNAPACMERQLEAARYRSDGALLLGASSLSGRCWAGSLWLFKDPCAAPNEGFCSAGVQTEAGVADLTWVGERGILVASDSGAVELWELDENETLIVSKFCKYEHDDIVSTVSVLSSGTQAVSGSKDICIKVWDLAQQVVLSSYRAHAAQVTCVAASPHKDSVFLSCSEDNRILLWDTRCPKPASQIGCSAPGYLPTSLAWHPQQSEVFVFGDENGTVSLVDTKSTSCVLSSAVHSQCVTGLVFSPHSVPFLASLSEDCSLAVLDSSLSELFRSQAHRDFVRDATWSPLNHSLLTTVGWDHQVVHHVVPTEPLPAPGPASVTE

As to ABT-199 [reference compound], the IC50 with GDM-1 cells was 0.007 µM; in the experiment on EOL-1 cells it was 0.03 µM.
Turning to `Nc1ncnc2c1ccn2[C@@H]1O[C@H]([C@H](O)c2ccc(Cl)c(OC3CC3)c2)[C@@H](O)[C@H]1O` [Example 4, (2R,3R,4S,5R)-2-(4-aminopyrrolo[2,3-d]pyrimidin-7-yl)-5-[(R)-[4-chloro-3-(cyclopropoxy)phenyl]-hydroxy-methyl]tetrahydrofuran-3,4-diol], the “percent inhibition of tumor volume versus vehicle” value in the experiment with Molt 4 cells was −75%. Besides, the IC50 at PRMT5/MEP50 complex turned out to be 0.0052 µM. The compound also registered an EC50 in experiment [1] of 1.04 µM.
